The results in this text go back to patent US9375411B2, “Uses and methods for the treatment of liver diseases or conditions” (Verlyx Pharma Inc., priority 2012, dated 2016).

Where a name gives a salt, the structure may show the parent alone.

The subject of data set [1] is GalN/LPS-induced liver injury. The data set is described as follows: GalN/LPS fulminant liver injury survival study. The format is in vivo. The note with it: C57BL/6 mice; IP 30 minutes prior GalN/LPS; PENTAMIDINE 40 mpk, Decamidine 10 mpk. How it is done: In this experiment, the 8-hour survival rate for C57BL/6 mice is evaluated when treated or not with two different aromatic diamidines (pentamidine isethionate(C5) and decamidine isethionate (C10)). Both compounds were administered intraperitoneally at doses close to their MTD 30 minutes prior a GalN/LPS-induced liver injury.

A short description of data set [2]: Oral bioavailability and biodistribution of pentamidine salts. The note with it: mice; for Tissue Concentration Kidney / Tissue Concentration Liver / Tissue Concentration Lung / Tissue Concentration Pancreas: 24 hours after PO 200 mg/kg; for Tissue Concentration Kidney / Tissue Concentration Liver / Tissue Concentration Lung / Tissue Concentration Pancreas / AUCINF / Cl/F / Cmax / MRT / Tmax / t½: 200 mg/kg; for F* / AUCINF / Cl/F / Cmax / MRT / Tmax / t½: oral 200 mg/kg; for F*: based on the iv AUC at 5 mg/kg of 19.08; for AUCINF / Cl/F / Cmax / MRT / Tmax / t½: blood. Here is the method: In this experiment, HCl, isethionate and tosylate salts of pentamidine were administered orally to mice and their PK and tissue accumulations were compared.
PK parameters for pentamidine salt following oral administration of 200 mg/kg in mice.
Biodistribution of Pentamidine Salts in mice, 24 hours after PO administration of 200 mg/kg.

In data set [1], `N=C(N)c1ccc(OCCCCCCCCCCOc2ccc(C(=N)N)cc2)cc1` [Decamidine, decamidine isethionate] yielded an 8-hour survival of 100%.
Regarding `N=C(N)c1ccc(OCCCCCOc2ccc(C(=N)N)cc2)cc1` [HCl salt, pentamidine bis-HCl], in data set [2] (listed as Penta-HCL, bis-HCl), the “Tissue Concentration Kidney” value is 156.3 µM, the “Tissue Concentration Liver” value stood at 224.6 µM, the “Tissue Concentration Lung” value was 43.4 µM and the “Tissue Concentration Pancreas” value was determined as 16.6 µM. In addition, in data set [2] (bis-HCl), the “F*” value is listed as 20.7, the AUCINF was found to be 158.1 µM·h, the Cl/F came out at 85 mL/min/kg and the highest concentration (Cmax) turned out to be 5240 nM. In data set [2] (bis-HCl), the MRT turned out to be 136.0 h, the Tmax was determined as 2.67 h and the t½ was found to be 90.8 h.
For the compound `N=C(N)c1ccc(OCCCCCOc2ccc(C(=N)N)cc2)cc1` [Tosylate salt, pentamidine tosylate], in data set [2] (listed as Penta-Tos), the “Tissue Concentration Kidney” value amounted to 1.9 µM, the “Tissue Concentration Liver” value was determined as 4.1 µM, the “Tissue Concentration Lung” value stood at 0.5 µM and the “Tissue Concentration Pancreas” value worked out at 0.5 µM. In data set [2], the “F*” value is listed as 2.3, the AUCINF was 17.8 µM·h, the Cl/F amounted to 440 mL/min/kg and the Cmax is 430 nM. Besides, in data set [2], the MRT came out at 86.0 h, the Tmax amounted to 6.67 h and the t½ was 54.9 h.

The Cmax is the highest concentration seen after dosing. As usually defined, the MRT is the average time that molecules of a dose stay in the body. The term Tmax denotes the time at which the peak concentration occurs. Broadly, the t½ is the time needed for the level to fall by half in the phase considered.
